IC50 data for 64 molecules are collected here from ChEMBL document CHEMBL5729163, “Substituted cyclohexyl compounds as NOP inhibiiors” (2022).

pIC50: −log10 of the molar value. A value given as a limit tells only on which side of the number the result lay.

By pIC50 is commonly meant the IC50 on a negative log10 scale, so that one unit is a factor of ten.

This test deals with Nociceptin receptor (Homo sapiens, UniProt P41146). Briefly: Cell-Based NOP Assay: Formula (I) compounds were tested for antagonism of the nociceptin receptor (NOP) in a cell-based cAMP assay, using the LANCE cAMP Detection Kit, Perkin Elmer (Waltham, Mass.). This assay (LANCE cAMP) is a homogeneous, time-resolved fluorescence resonance energy transfer (TR-FRET) immunoassay designed to measure cAMP produced upon modulation of adenylyl cyclase activity by G protein-coupled receptors (GPCRs).ProtocolCells expressing human opioid NOP (ValiScreen cell line, cat #ES-230-C Perkin Elmer (Waltham, Mass.) were dispensed in simulation buffer (5 mM Hepes, 0.1% BSA, 0.5 mM IBMX in Hanks Buffered Saline Solution) at 2.5 μL cells per well (400 cells/well) into a 1536 white TC-treated assay plate. Compound was then added and plates were incubated for 15 minutes at room temperature. To each well was added 2.5 μL of a solution containing forskolin (3 μM final) and nociceptin peptide (390 pM final) diluted in stimulation buffer, and the plates were incubated for 30 minutes at room temperature. To each well was dispensed 5 μL of LANCE Ultra detection (1:300 dilution of anti-cAMP ULight with a 1:100 dilution of Eu-cAMP tracer diluted in cAMP Detection Buffer) reagent, and the plates were incubated for 1 hr at room temperature. The plate was then read on the ViewLux microplate reader (Perkin Elmer, Waltham, Mass.) using the LANCE 1536 protocol with 60 second exposure times and 50 μs delay. This protocol has an excitation wavelength of 340 nm (DUG11 filter) and emission wavelengths of 615 nm (Eu-Donor) and 665 nm (Alexa 647 cAMP antibody acceptor).Data AnalysisData was analyzed, normalized, and visualized using ACAS (John McNeil & Co.). Efficacy was calculated using activity of the vehicle (DMSO) as 0% efficacy and the activity of the corresponding reference positive control (SCH 221510, Tocris Bioscience (Pittsburgh, Pa.), Catalog number 3240) as 100% efficacy. Activity was calculated as the ratio of donor and acceptor emissions. All curve fits and IC50 determinations were performed using a non-linear regression model. The IC50 value was measured as the concentration at which half-maximal response was calculated.
Chain of Nociceptin receptor (P41146 whole entry): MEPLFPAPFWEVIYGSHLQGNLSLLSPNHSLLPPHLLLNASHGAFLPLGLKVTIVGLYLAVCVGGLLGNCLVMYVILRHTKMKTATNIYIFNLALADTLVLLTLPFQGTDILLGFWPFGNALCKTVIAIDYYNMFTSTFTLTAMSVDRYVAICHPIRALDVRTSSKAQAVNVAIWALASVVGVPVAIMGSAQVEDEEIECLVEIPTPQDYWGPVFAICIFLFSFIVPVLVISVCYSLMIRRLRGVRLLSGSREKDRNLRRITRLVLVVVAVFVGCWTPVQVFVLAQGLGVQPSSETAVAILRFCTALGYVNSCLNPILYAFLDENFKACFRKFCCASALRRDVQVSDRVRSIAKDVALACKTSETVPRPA

For the molecule `NC(=O)C1(NCC[C@H]2CC[C@@H](c3ccc(F)cc3C(F)(F)F)CC2)CCOCC1`, the pIC50 was 8.00 to 9.00.
For `Cc1cc(F)cc(F)c1[C@H]1CC[C@@H](CCNC2(C(N)=O)CCOCC2)CC1` the value was 8.00 to 9.00.
For `Clc1cccnc1C1CCC(CCNC2CCCCC2)CC1` (centres undefined) the value was 6.00 to 7.00.
For `O=C1C[C@H](NCC[C@H]2CC[C@@H](c3ccc(F)cc3Cl)CC2)CCN1` the value was above 9.00; for `NC(=O)C1(NCC[C@H]2CC[C@H](c3ccc(F)cc3Cl)CC2)CCOCC1`, 7.00 to 8.00.
Take `CN1CCC(NCC[C@H]2CC[C@@H](c3ccc(F)cc3Cl)CC2)CC1=O` (some centres undefined): the pIC50 is 7.00 to 8.00.
On to `CC1(NCCC2CCC(c3ncc(F)cc3Cl)CC2)CCCC1` (centres undefined), for which the pIC50 is 7.00 to 8.00.
For `OC1COCCC1NCC[C@H]1CC[C@@H](c2ccc(F)cc2Cl)CC1` (some centres undefined) the value was above 9.00.
For `NC(=O)C1(NCCC2CCC(c3ccc(F)cc3F)CC2)CCCC1` (centres undefined) the value was 6.00 to 7.00.
As for `Cc1cc(F)ccc1[C@H]1CC[C@@H](CCNC2(C(N)=O)CCOCC2)CC1`, the pIC50 is 8.00 to 9.00.
As for `Cc1c(C#N)cccc1[C@H]1CC[C@@H](CCNC2CCOCC2)CC1`, the negative logarithm of the IC50 (pIC50) was 6.00 to 7.00.
Take `Cc1cnccc1C1CCC(CCNC2CCOCC2)CC1` (centres undefined): the pIC50 is 6.00 to 7.00.
`COCC1(NCC[C@H]2CC[C@@H](c3ccc(F)cc3Cl)CC2)CCOCC1`: the negative-log IC50 (pIC50) was 8.00 to 9.00.
For `Fc1ccc(C2CCC(CCNC3CCCC3)CC2)c(F)c1` (centres undefined) the value was 7.00 to 8.00; for `CCNC(=O)C1(NCC[C@H]2CC[C@@H](c3ccc(F)cc3C(F)(F)F)CC2)CCOCC1`, 8.00 to 9.00; for `CC1(NCCC2CCC(c3ccccc3Cl)CC2)CCCC1` (centres undefined), 6.00 to 7.00.
For `O=C1NCCC1NCC[C@H]1CC[C@@H](c2ccc(F)cc2Cl)CC1` (some centres undefined) the value was 8.00 to 9.00.
For `O=C1C[C@@H](NCC[C@H]2CC[C@@H](c3ncc(F)cc3Cl)CC2)CCN1` the value was 7.00 to 8.00; for `NC(=O)C1(NCCC2CCC(c3cc(F)ccc3Cl)CC2)CCCC1` (centres undefined), 6.00 to 7.00; for `O=C1C[C@H](NCC[C@H]2CC[C@H](c3ncc(F)cc3Cl)CC2)CCN1`, 8.00 to 9.00.
As for `CNC(=O)C1(NCC[C@H]2CC[C@@H](c3ccc(F)cc3C(F)(F)F)CC2)CCOCC1`, the pIC50 is 8.00 to 9.00.
For `Cc1cc(F)ccc1C1CCC(CCNC2CCOCC2)CC1` (centres undefined) the value was 8.00 to 9.00.
For `CNC(=O)C1(NCC[C@H]2CC[C@H](c3ccc(F)cc3F)CC2)CCOCC1` the value was 8.00 to 9.00; for `COCC1(NCCC2CCC(c3cc(F)ccc3Cl)CC2)CCOCC1` (centres undefined), 7.00 to 8.00.
With `CNC(=O)C1(NCC[C@H]2CC[C@H](c3ccc(F)cc3C(F)(F)F)CC2)CCOCC1`, the pIC50 is 8.00 to 9.00.
As to `Fc1ccc([C@H]2CC[C@@H](CCNC3CCC(F)(F)C3)CC2)c(Cl)c1` (some centres undefined), the pIC50 is above 9.00.
Turning to `Fc1cccc(Cl)c1C1CCC(CCNC2CCCCC2)CC1` (centres undefined), the pIC50 is 8.00 to 9.00.
As for `Cc1cc(F)c(F)cc1[C@H]1CC[C@H](CCNC2(C(N)=O)CCOCC2)CC1`, the negative-log IC50 (pIC50) is 6.00 to 7.00.
For `CN1CCC(NCCC2CCC(c3ccc(Cl)cc3F)CC2)CC1` (centres undefined) the value was 6.00 to 7.00.
For `CNC(=O)C1(NCCC2CCC(c3ncccc3Cl)CC2)CCCC1` (centres undefined) the value was 6.00 to 7.00; for `Fc1cc(Cl)ccc1C1CCC(CCNC2CCCCC2)CC1` (centres undefined), 8.00 to 9.00; for `Fc1cccc(Cl)c1[C@H]1CC[C@H](CCNC2CCOCC2)CC1`, 8.00 to 9.00.
For `Fc1ccc(C2CCC(CCNC3CCOCC3)CC2)c(Cl)c1` (mixture of isomers) the value was above 9.00.
For `Cc1cccnc1C1CCC(CCNC2CCCC2)CC1` (centres undefined), the pIC50 was 6.00 to 7.00.
For `Cc1cnccc1[C@H]1CC[C@H](CCNC2CCOCC2)CC1` the value was 6.00 to 7.00; for `CNC(=O)C1(NCCC2CCC(c3ncc(F)cc3Cl)CC2)CCCC1` (centres undefined), 7.00 to 8.00.
In the case of `NC(=O)C1(NCC[C@H]2CC[C@@H](c3cccc(F)c3Cl)CC2)CCOCC1`, the pIC50 is 6.00 to 7.00.
For `Fc1ccc(C2CCC(CCNC3CCCCC3)CC2)c(F)c1` (centres undefined) the value was 7.00 to 8.00.
Regarding `NC(=O)C1(NCC[C@H]2CC[C@H](c3ncc(F)cc3Cl)CC2)CCOCC1`, the pIC50 was 7.00 to 8.00.
For `O=C1C[C@@H](NCC[C@H]2CC[C@@H](c3ccc(F)cc3Cl)CC2)CCN1` the value was 8.00 to 9.00; for `Fc1cccc(Cl)c1[C@H]1CC[C@@H](CCNC2CCOCC2)CC1`, above 9.00.
For `NC(=O)C1(NCC[C@H]2CC[C@H](c3c(F)cc(F)cc3F)CC2)CCOCC1` the value was 8.00 to 9.00; for `CC1(NCC[C@H]2CC[C@@H](c3ncc(F)cc3Cl)CC2)CCNC(=O)C1` (some centres undefined), 6.00 to 7.00; for `CNC(=O)C1(NCC[C@H]2CC[C@@H](c3ccc(F)cc3Cl)CC2)CCCC1`, 8.00 to 9.00.
For `N#C[C@H]1CC[C@@H](NCC[C@H]2CC[C@@H](c3ccc(F)cc3C(F)(F)F)CC2)CC1` the value was above 9.00.
As for `Fc1ccc(Cl)c(C2CCC(CCNC3CCOCC3)CC2)c1` (centres undefined), the pIC50 was 8.00 to 9.00.
Regarding `OCC1(NCC[C@H]2CC[C@@H](c3ccc(F)cc3Cl)CC2)CCOCC1`, the pIC50 was 8.00 to 9.00.
For `Cc1cc(F)c(F)cc1[C@H]1CC[C@H](CCN[C@@H]2CCNC(=O)C2)CC1` the value was 7.00 to 8.00; for `CN1CCC(NCCC2CCC(c3c(F)cccc3Cl)CC2)CC1` (centres undefined), 6.00 to 7.00; for `Fc1cnc(C2CCC(CCNC3CCCCC3)CC2)c(Cl)c1` (centres undefined), 8.00 to 9.00.
For `Cc1ccncc1[C@H]1CC[C@@H](CCNC2CCOCC2)CC1` the value was 6.00 to 7.00; for `Cc1cccnc1C1CCC(CCNC2(C)CCCC2)CC1` (centres undefined), 6.00 to 7.00; for `Cc1cc(F)ccc1[C@H]1CC[C@H](CCNC2(C(N)=O)CCOCC2)CC1`, 7.00 to 8.00.
For `COCC1(NCCC2CCC(c3ccccc3Cl)CC2)CCOCC1` (centres undefined) the value was 7.00 to 8.00; for `NC(=O)C1(NCC[C@H]2CC[C@H](c3cc(F)ccc3Cl)CC2)CCOCC1`, 7.00 to 8.00; for `OC1CCCC1NCC[C@H]1CC[C@@H](c2ccc(F)cc2Cl)CC1` (some centres undefined), above 9.00.
Take `CN1CCC(NCCC2CCC(c3cc(F)ccc3Cl)CC2)CC1` (centres undefined): the pIC50 is 6.00 to 7.00.
For `Cc1cnccc1[C@H]1CC[C@@H](CCNC2CCOCC2)CC1` the value was 6.00 to 7.00.
For `Clc1cccnc1[C@H]1CC[C@H](CCNC2CCOCC2)CC1` the value was 7.00 to 8.00; for `Fc1ccc([C@H]2CC[C@H](CCNC3CCOCC3)CC2)c(F)c1`, 8.00 to 9.00; for `O=C1C[C@@H](NCC[C@H]2CC[C@H](c3ncc(F)cc3Cl)CC2)CCN1`, 6.00 to 7.00.
For `Fc1ccc([C@H]2CC[C@@H](CCNC3CCOCC3)CC2)c(F)c1` the value was 8.00 to 9.00; for `NC(=O)C1(NCC[C@H]2CC[C@@H](c3cc(F)ccc3Cl)CC2)CCOCC1`, 7.00 to 8.00; for `Cc1cc(F)c(F)cc1[C@H]1CC[C@@H](CCN[C@@H]2CCNC(=O)C2)CC1`, 8.00 to 9.00.
